Reference: ChEMBL document CHEMBL5331099, “Chemical scaffold recycling: Structure-guided conversion of an HIV integrase inhibitor into a potent influenza virus RNA-dependent RNA polymerase inhibitor designed to minimize resistance potential” (Eur J Med Chem, 2023)
pKd: −log10 of the molar value.

experiment: Binding affinity to Influenza A virus PA endonuclease I39T mutant assessed as dissociation constant by MST assay

With `O=C1c2c(O)c(=O)ccn2N([C@@H]2c3ccccc3SCc3c2ccc(F)c3F)C2COCCN12` (stereo partly drawn) as the compound, how does the pKd read?
The pKd was 5.03.

With `COc1cnccc1CCNC(=O)c1nc(-c2ccccc2C(F)(F)F)[nH]c(=O)c1O` as the compound, how does the pKd read?
The pKd was 7.49.

With `Nc1ncnc2c1ncn2CCNC(=O)c1nc(-c2ccccc2C(F)(F)F)[nH]c(=O)c1O` as the compound, how does the pKd read?
The pKd was 7.80.
